Entries after “also recorded” stand apart in the source; their conditions may differ. Like-named read-outs stand apart in the source and are kept apart here.
How the values were obtained:
HEY cells = assay: Cell cycle analysis (propidium iodide), SC21, HEY; assay type: cell-based, human; details: 72 hours
Experimental: FIG. 17 depicts flow cytometric analysis of the cell cycle profiles of DU145, PC3, MDA-MB-435, and HEY cells treated with SC21. […] SC21 induced a G0/G1 phase arrest in DU145 and MDA-MB-435 cells and S phase arrest in PC3 and HEY cells.
Cell cycle perturbations induced by SC21 and camptothecin (CPT) were analyzed by propidium iodide DNA staining. Briefly, exponentially growing PC3 and DU145 cells were treated with different doses of the drug for 24, 48, and 72 hours. At the end of each treatment time, cells were collected and washed with PBS after a gentle centrifugation at 200×g for 5 minutes. Cells were thoroughly resuspended in 0.5 mL of PBS and fixed in 70% ethanol for at least 2 hours at 4° C. Ethanol-suspended cells were then centrifuged at 200×g for 5 minutes and washed twice in PBS to remove residual ethanol. For cell cycle analysis, the pellets were suspended in 1 mL of PBS containing 0.02 mg/mL of propidiumiodide, 0.5 mg/mL of DNase-free RNase A and 0.1% of Triton X-100 and incubated at 37° C. for 30 minutes. Cell cycle profiles were obtained using a FACScan flowcytometer (Becton Dickinson, San Jose, Calif.) and data were analyzed by ModFit LT software (Verity Software House, Inc., Topsham, Me.).
It was noteworthy that SC21 induced S phase arrest in PC3 and HEY cell lines (FIG. 17).

[1] = tested on: HOP-62 non-small cell lung cancer cells; assay: Sensitivity of various cancer cells to SC144, HOP-62; assay type: cell-based; details: Homo sapiens
Source text: (§1) The studies were expanded to other cell lines. […] Subnanomolar to low nanomolar potency was also observed in HCT-116 and HT29 colon cancer cell lines (Table 2).

[2] = tested on: HOP-92 non-small cell lung cancer cells; assay: Sensitivity of various cancer cells to SC144, HOP-92; assay type: cell-based; details: Homo sapiens
Source text: as §1

HL60 leukemia cells = assay: Sensitivity of various cancer cells to SC144, HL60; assay type: cell-based; details: Homo sapiens, HL-60
Source text: as §1

RPMI-8226 leukemia cells = assay: Sensitivity of various cancer cells to SC144, RPMI-8226; assay type: cell-based; details: Homo sapiens
Source text: as §1

MDA-MB-435 xenograft = assay: microPET study of nude mouse with MDA-MB-435 xenograft treated with SC144; assay type: in vivo; details: 4 mg/kg daily i.p. 5 days; caliper measurements for 5 weeks
Experimental: Top row, baseline scans: (A) equilibrium-phase FDG, 30 min post injection; (B) FMAU, 10 min post injection; (C) FMAU, 60 min post injection. Bottom row, follow-up scans: (D) FDG, 30 min post injection; (E) FMAU, 10 min post injection; (F) FMAU, 60 min post injection. […] After five days of dosing, the drug treatment was discontinued and the follow-up scans were obtained on days 6 and 7.
[^18F]FDG is currently the most widely used radiotracer for imaging therapy response in oncology with PET. PET/[^18F]FDG measures viable cell density in tumors and also provides information on the expression of glucose transporters and hexokinase activity. […] Following cellular uptake, FMAU is phosphorylated by thymidine kinase and incorporated into DNA.
In later images at 30 and 60 min (FIG. 8C), FMAU had filled up the whole tumor, indicating the presence of dividing cells throughout.
FIGS. 8D-F show a repeat study of the same mouse after 5 days of treatment.

MDA-MB-435 xenografts = assay: Nude mice xenograft model of human breast MDA-MB-435 cells; assay type: in vivo
Experimental: FIG. 3. (A) is a schematic outline of tumor growth and dosing in xenograft models. […] Tumor growth was monitored for five weeks. Values represent the median tumor weight for each group.
After five-days of dosing, the drug treatment was discontinued and the animals were monitored bi-weekly for five weeks.
For statistical analysis, the % T/C value was calculated on the last day of dosing and is graphed for all of the treatment groups (FIG. 3C).
To evaluate the extent of tumor necrosis after drug treatment tumor samples were collected from control and treated mice on day 70.

UO-31 renal cancer cells = assay: Sensitivity of various cancer cells to SC144, UO-31; assay type: cell-based; details: Homo sapiens
Source text: as §1

MDA-MB-435 cells = assay: Annexin V/PI apoptosis analysis, SC144 and CPT; assay type: cell-based, human; details: 48 h; IC80
Source text: Cells were stained with annexin V/PI and analyzed by flow cytometry. Cells in the bottom left quadrant of each panel (Annexin V-negative, PI-negative) are viable, whereas cells in the bottom right quadrant (Annexin V-positive, PI-negative) are in the early stages of apoptosis, and cells in the top right quadrant (Annexin V-positive, PI-positive) are in later stages of apoptosis and necrosis.
An early event in apoptotic cell death is the translocation of the phosphatidyl-serine residues to the outer part of the cell membrane. This event precedes nuclear breakdown, DNA fragmentation, the appearance of most apoptosis-associated molecules, and is readily measured by annexin V binding assay. By this method, SC144 was compared with CPT.

UACC-257 melanoma cells = assay: Sensitivity of various cancer cells to SC144, UACC-257; assay type: cell-based; details: Homo sapiens
Source text: as §1

[3] = tested on: HCT 116 p53^−/− colon cancer cells; assay: MTT cytotoxicity assay, HCT 116 p53-/-; assay type: cell-based, human; details: Homo sapiens, 72 h
Source text: Human breast cancer cells MDA-MB-435 and colon cancer HT29, p53 mutant were purchased from the American Type Cell Culture (Manassas, Va.). The HCT116 P53^+/+ and HCT116 P53^−/− cells were kindly provided by Dr. Bert Vogelstein (Johns Hopkins Medical Institutions, Baltimore, Md.). Human prostate cancer cells, LNCaP, were kindly provided by Richard Cote (University of Southern California Keck School of Medicine). Cells were maintained as monolayer cultures in RPMI 1640 media supplemented with 10% fetal bovine serum (Gemini-Bioproducts, Woodland, Calif.) and 2 mmol/L L-glutamine at 37° C. in a humidified atmosphere of 5% CO2. To remove the adherent cells from the flask for passaging and counting, cells were washed with PBS without calcium or magnesium, incubated with a small volume of 0.25% trypsin-EDTA solution (Sigma-Aldrich, St. Louis, Mo.) for 5-10 min, and washed with culture medium and centrifuged. All experiments were performed using cells at exponential growth stage. Cells were routinely checked for mycoplasma contamination using a PCR-based assay (Stratagene, Cambridge, UK).
Cytotoxicity was assessed by a 3-(4,5-dimethylthiazol-2-yl)-2,5-diphenyltetrazolium bromide (MTT) assay as previously described.^9 Briefly, cells were seeded in 96-well microtiter plates and allowed to attach. Cells were subsequently treated with continuous exposure to the corresponding drug for 72 h. An MTT solution (at a final concentration of 0.5 mg/mL) was added to each well, and cells were incubated for 4 h at 37° C. After removal of the medium, DMSO was added and the absorbance was read at 570 nm. All assays were done in triplicate. The IC50 was then determined for each drug from a plot of log (drug concentration) versus percentage of cells killed.

SMILES	accumulation in S phase (HEY cells) [%]	CC50 ([1]; HOP-62, read-out: CC50) [nM]	CC50 ([1]; non-small cell lung cancer cells HOP-62, EKVX, and HOP-92, read-out: CC50 values range) [nM]	CC50 [2] [nM]	CC50 (HL60 leukemia cells) [nM]	CC50 (RPMI-8226 leukemia cells) [nM]	long-term reduction of tumor volume compared with sham-treated control mice (MDA-MB-435 xenograft) [%]	organ toxicity (H&E staining of kidney, liver, heart tissues) (MDA-MB-435 xenografts; 4 mg/kg)	reduced tumor growth (MDA-MB-435 xenografts; 4 mg/kg daily i.p. for five days) [%]	necrosis of tumor tissues (MDA-MB-435 xenografts; 4 mg/kg, day 70, H&E staining)	tolerability, drug-related deaths (MDA-MB-435 xenografts; 0.3, 0.8, 4 mg/kg daily i.p. five days)	body weight compared to vehicle control (MDA-MB-435 xenografts; mouse, in vivo)	CC50 (UO-31 renal cancer cells) [nM]	early-apoptotic cells (MDA-MB-435 cells) [%]	late-apoptosis/necrosis (MDA-MB-435 cells) [%]	CC50 (UACC-257 melanoma cells) [nM]	IC50 [3] [nM]
O=C(NNC(=O)c1ccccc1O)C1=CC2C=CC=CC2C=C1O (centres unmarked) [SC21]	69	–	–	–	–	–	–	–	–	–	–	–	–	–	–	–	–
O=C(NNc1nc2cc(F)ccc2n2cccc12)c1cnccn1 [SC144, Pyrazine-2-carboxylic acid N′-(7-fluoro-pyrrolo[1,2-a]quinoxalin-4-yl)-hydrazide]	–	10	10 to 20	200	270	250	> 50	no damage in these organs; also recorded: does not exhibit organ toxicity	60	greater than 80%	well tolerated and did not result in drug-related deaths	no changes in body weight	300	37	16	400	900 ± 40
